These are literature values, as cited in patent US20030008852A1, “Transdermal system containing acetylsalicylic acid for treatment of migraine” (priority 1999, published 2003).

This data set has as its system migraine. The conditions noted are these: oral, 235 mg every second day.

As to `CC(=O)Oc1ccccc1C(=O)O` [acetylsalicylic acid], the “reduction in the migraine recurrence rate compared with the placebo group” value is recorded as 20%.
